Experimental data reported in ChEMBL document CHEMBL3751770, “Identification of benzothiophene amides as potent inhibitors of human nicotinamide phosphoribosyltransferase” (Bioorg Med Chem Lett, 2016).

Columns and labels:
HepG2 [1] = experiment: Cytotoxicity against human HepG2 cells after 72 hrs by MTT assay; type: functional, cell-based; conditions: HepG2, 72 h
[2] = Cytotoxicity against human HCT116 cells after 72 hrs by MTT assay; type: functional, cell-based; conditions: HCT-116, 72 h
[3] = target: Nicotinamide phosphoribosyltransferase (Homo sapiens, UniProt P43490); experiment: Inhibition of human Nampt using NAM as substrate after 15 mins by fluorometric method
MDA-MB-231 = experiment: Cytotoxicity against human MDA-MB-231 cells after 72 hrs by MTT assay; type: functional, cell-based; conditions: MDA-MB-231, 72 h
HepG2 [4] = experiment: Induction of apoptosis in human HepG2 cells assessed as late apoptotic cells level at 5 uM after 48 hrs using annexin VFITC/propidium iodide staining by flow cytometry (reference value: 2.85%); type: functional
HepG2 [5] = experiment: Induction of apoptosis in human HepG2 cells assessed as necrotic cells level at 5 uM after 48 hrs using annexin VFITC/propidium iodide staining by flow cytometry (reference value: 4.09%); type: functional
HepG2 [6] = experiment: Induction of apoptosis in human HepG2 cells assessed as early apoptotic cells level at 5 uM after 48 hrs using annexin VFITC/propidium iodide staining by flow cytometry (reference value: 2.84%); type: functional

Chain of Nicotinamide phosphoribosyltransferase (P43490 whole entry): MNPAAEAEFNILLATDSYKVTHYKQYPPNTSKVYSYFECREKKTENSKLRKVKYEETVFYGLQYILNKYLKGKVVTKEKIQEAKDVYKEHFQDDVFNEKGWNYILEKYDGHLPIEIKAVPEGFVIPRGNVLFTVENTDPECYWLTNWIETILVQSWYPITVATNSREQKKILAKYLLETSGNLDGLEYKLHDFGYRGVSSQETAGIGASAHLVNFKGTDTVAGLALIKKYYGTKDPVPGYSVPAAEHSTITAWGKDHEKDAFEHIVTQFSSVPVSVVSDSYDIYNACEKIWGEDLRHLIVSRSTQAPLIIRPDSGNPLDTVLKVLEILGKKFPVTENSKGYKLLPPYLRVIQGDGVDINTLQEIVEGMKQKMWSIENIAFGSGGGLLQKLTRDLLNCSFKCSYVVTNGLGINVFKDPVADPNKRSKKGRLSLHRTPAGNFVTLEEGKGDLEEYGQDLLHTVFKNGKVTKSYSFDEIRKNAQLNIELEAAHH

Compound	IC50 (HepG2 [1])	IC50 [2]	IC50 [3]	IC50 (MDA-MB-231)	Activity (HepG2 [4])	Activity (HepG2 [5])	Activity (HepG2 [6])
COc1ccc(CCNC(=O)c2ccc(C)s2)cc1OC	> 307 µM	> 307 µM	0.86 µM	> 307 µM			
COc1ccc(CCNC(=O)c2cc3ccccc3s2)cc1OC	82 µM	281 µM		> 293 µM			
COc1ccc(CCNC(=O)c2sccc2C)cc1OC	99 µM	169 µM	5.3 µM	191 µM			
COc1ccc(CCNC(=O)CNC(=O)c2ccc(C)s2)cc1OC	> 401 µM	> 401 µM	0.95 µM	> 401 µM			
Cc1ccsc1C(=O)NCCCn1ccnc1	102 µM	198 µM	> 10 µM	> 276 µM			
O=C(NCCCn1ccnc1)c1cc2ccccc2o1	11 µM	61 µM	1 µM	10 µM			
COc1ccc(CCNC(=O)c2cc3ccccc3o2)cc1OC	137 µM	159 µM	1.4 µM	> 371 µM			
O=C(/C=C/c1cccnc1)NCCCn1ccnc1	> 276 µM	> 276 µM	> 10 µM	> 276 µM			
O=C(NCCCn1ccnc1)c1ccc([N+](=O)[O-])s1	60 µM	> 390 µM	> 10 µM	> 390 µM			
COc1ccc(CCNC(=O)CNC(=O)c2sccc2C)cc1OC	47 µM	196 µM	> 10 µM	> 328 µM			
O=C(NCCCn1ccnc1)c1cc2ccccc2s1	5.2 µM	25 µM	1.1 µM	36 µM	24.42%	6.75%	1.88%
COc1ccc(CCNC(=O)c2ccc([N+](=O)[O-])s2)cc1OC	80 µM	86 µM	> 10 µM	> 328 µM			
Cc1ccc(C(=O)NCCCn2ccnc2)s1	3.9 µM	> 320 µM	0.17 µM	> 320 µM	47.51%	6.62%	1.03%
COc1ccc(CCNC(=O)/C=C/c2cccnc2)cc1OC	> 401 µM	> 401 µM	> 10 µM	> 401 µM			
